# Laboratory results from the NIST ThermoML archive (doi:10.1021/je900969u).
# Numbers after ± are expanded uncertainties.
# How the values were obtained:
# [1] = xn = mol fraction of the nth substance listed; settings: 101 kPa, Liquid
# [2] = 101 kPa, Liquid
structure (smiles),measurement,setting,value
CN1CCNCC1 [N-methylpiperazine] + CCCCCCC,mass density,"[1]; 298.15 K, x1 = 0.1006",695.86 ± 0.68 kg/m3
same,viscosity,"[1]; 298.15 K, x1 = 0.1006",0.429 ± 0.013 mPa·s
same,mass density,"[1]; 298.15 K, x1 = 0.2012",713.24 ± 0.65 kg/m3
same,viscosity,"[1]; 298.15 K, x1 = 0.2012",0.466 ± 0.013 mPa·s
same,mass density,"[1]; 298.15 K, x1 = 0.3006",731.62 ± 0.61 kg/m3
same,viscosity,"[1]; 298.15 K, x1 = 0.3006",0.511 ± 0.014 mPa·s
same,mass density,"[1]; 298.15 K, x1 = 0.4014",751.5 ± 0.57 kg/m3
same,viscosity,"[1]; 298.15 K, x1 = 0.4014",0.571 ± 0.016 mPa·s
same,mass density,"[1]; 298.15 K, x1 = 0.5007",772.43 ± 0.53 kg/m3
same,viscosity,"[1]; 298.15 K, x1 = 0.5007",0.648 ± 0.017 mPa·s
same,mass density,"[1]; 298.15 K, x1 = 0.5996",794.38 ± 0.48 kg/m3
same,viscosity,"[1]; 298.15 K, x1 = 0.5996",0.756 ± 0.02 mPa·s
same,mass density,"[1]; 298.15 K, x1 = 0.7",818.02 ± 0.44 kg/m3
same,viscosity,"[1]; 298.15 K, x1 = 0.7",0.905 ± 0.023 mPa·s
same,mass density,"[1]; 298.15 K, x1 = 0.7979",842.73 ± 0.39 kg/m3
same,viscosity,"[1]; 298.15 K, x1 = 0.7979",1.094 ± 0.027 mPa·s
same,mass density,"[1]; 298.15 K, x1 = 0.9036",871.01 ± 0.34 kg/m3
same,viscosity,"[1]; 298.15 K, x1 = 0.9036",1.474 ± 0.036 mPa·s
same,mass density,"[1]; 298.15 K, x1 = 1",899.28 ± 0.29 kg/m3
same,viscosity,"[1]; 298.15 K, x1 = 1",1.856 ± 0.045 mPa·s
same,mass density,"[1]; 303.15 K, x1 = 0.1006",691.57 ± 0.69 kg/m3
same,viscosity,"[1]; 303.15 K, x1 = 0.1006",0.395 ± 0.012 mPa·s
same,mass density,"[1]; 303.15 K, x1 = 0.2012",708.91 ± 0.65 kg/m3
same,viscosity,"[1]; 303.15 K, x1 = 0.2012",0.438 ± 0.013 mPa·s
same,mass density,"[1]; 303.15 K, x1 = 0.3006",727.27 ± 0.61 kg/m3
same,viscosity,"[1]; 303.15 K, x1 = 0.3006",0.481 ± 0.014 mPa·s
same,mass density,"[1]; 303.15 K, x1 = 0.4014",747.13 ± 0.57 kg/m3
same,viscosity,"[1]; 303.15 K, x1 = 0.4014",0.533 ± 0.015 mPa·s
same,mass density,"[1]; 303.15 K, x1 = 0.5007",768.04 ± 0.53 kg/m3
same,viscosity,"[1]; 303.15 K, x1 = 0.5007",0.599 ± 0.016 mPa·s
same,mass density,"[1]; 303.15 K, x1 = 0.5996",789.99 ± 0.49 kg/m3
same,viscosity,"[1]; 303.15 K, x1 = 0.5996",0.699 ± 0.018 mPa·s
same,mass density,"[1]; 303.15 K, x1 = 0.7",813.61 ± 0.45 kg/m3
same,viscosity,"[1]; 303.15 K, x1 = 0.7",0.815 ± 0.021 mPa·s
same,mass density,"[1]; 303.15 K, x1 = 0.7979",838.32 ± 0.4 kg/m3
same,viscosity,"[1]; 303.15 K, x1 = 0.7979",0.995 ± 0.025 mPa·s
same,mass density,"[1]; 303.15 K, x1 = 0.9036",866.62 ± 0.35 kg/m3
same,viscosity,"[1]; 303.15 K, x1 = 0.9036",1.234 ± 0.03 mPa·s
same,mass density,"[1]; 303.15 K, x1 = 1",894.9 ± 0.3 kg/m3
same,viscosity,"[1]; 303.15 K, x1 = 1",1.544 ± 0.037 mPa·s
same,mass density,"[1]; 313.15 K, x1 = 0.1006",682.9 ± 0.7 kg/m3
same,viscosity,"[1]; 313.15 K, x1 = 0.1006",0.36 ± 0.011 mPa·s
same,mass density,"[1]; 313.15 K, x1 = 0.2012",700.2 ± 0.66 kg/m3
same,viscosity,"[1]; 313.15 K, x1 = 0.2012",0.389 ± 0.012 mPa·s
same,mass density,"[1]; 313.15 K, x1 = 0.3006",718.49 ± 0.63 kg/m3
same,viscosity,"[1]; 313.15 K, x1 = 0.3006",0.424 ± 0.012 mPa·s
same,mass density,"[1]; 313.15 K, x1 = 0.4014",738.3 ± 0.59 kg/m3
same,viscosity,"[1]; 313.15 K, x1 = 0.4014",0.467 ± 0.013 mPa·s
same,mass density,"[1]; 313.15 K, x1 = 0.5007",759.18 ± 0.54 kg/m3
same,viscosity,"[1]; 313.15 K, x1 = 0.5007",0.527 ± 0.015 mPa·s
same,mass density,"[1]; 313.15 K, x1 = 0.5996",781.1 ± 0.5 kg/m3
same,viscosity,"[1]; 313.15 K, x1 = 0.5996",0.603 ± 0.016 mPa·s
same,mass density,"[1]; 313.15 K, x1 = 0.7",804.71 ± 0.46 kg/m3
same,viscosity,"[1]; 313.15 K, x1 = 0.7",0.691 ± 0.018 mPa·s
same,mass density,"[1]; 313.15 K, x1 = 0.7979",829.43 ± 0.41 kg/m3
same,viscosity,"[1]; 313.15 K, x1 = 0.7979",0.826 ± 0.021 mPa·s
same,mass density,"[1]; 313.15 K, x1 = 0.9036",857.75 ± 0.36 kg/m3
same,viscosity,"[1]; 313.15 K, x1 = 0.9036",1.024 ± 0.026 mPa·s
same,mass density,"[1]; 313.15 K, x1 = 1",886.07 ± 0.31 kg/m3
same,viscosity,"[1]; 313.15 K, x1 = 1",1.25 ± 0.031 mPa·s
CCCCCCC [heptane],mass density,[2]; 298.15 K,679.72 ± 0.72 kg/m3
same,viscosity,[2]; 298.15 K,0.404 ± 0.012 mPa·s
same,mass density,[2]; 303.15 K,675.46 ± 0.72 kg/m3
same,viscosity,[2]; 303.15 K,0.383 ± 0.012 mPa·s
same,mass density,[2]; 313.15 K,666.84 ± 0.73 kg/m3
same,viscosity,[2]; 313.15 K,0.342 ± 0.011 mPa·s
CCCCCCC [heptane] + CN1CCNCC1,mass density,"[1]; 298.15 K, x2 = 0",679.72 ± 0.72 kg/m3
same,viscosity,"[1]; 298.15 K, x2 = 0",0.404 ± 0.012 mPa·s
same,mass density,"[1]; 303.15 K, x2 = 0",675.46 ± 0.72 kg/m3
same,viscosity,"[1]; 303.15 K, x2 = 0",0.383 ± 0.012 mPa·s
same,mass density,"[1]; 313.15 K, x2 = 0",666.84 ± 0.73 kg/m3
same,viscosity,"[1]; 313.15 K, x2 = 0",0.342 ± 0.011 mPa·s
CC1CCCCC1 [methylcyclohexane],mass density,[2]; 298.15 K,765 ± 1.9 kg/m3
same,viscosity,[2]; 298.15 K,0.719 ± 0.02 mPa·s
same,mass density,[2]; 303.15 K,760.67 ± 2 kg/m3
same,viscosity,[2]; 303.15 K,0.655 ± 0.019 mPa·s
same,mass density,[2]; 313.15 K,751.94 ± 2 kg/m3
same,viscosity,[2]; 313.15 K,0.573 ± 0.017 mPa·s
CC1CCCCC1 [methylcyclohexane] + CN1CCNCC1,mass density,"[1]; 298.15 K, x2 = 0",765 ± 1.9 kg/m3
same,viscosity,"[1]; 298.15 K, x2 = 0",0.719 ± 0.02 mPa·s
same,mass density,"[1]; 303.15 K, x2 = 0",760.67 ± 2 kg/m3
same,viscosity,"[1]; 303.15 K, x2 = 0",0.655 ± 0.019 mPa·s
same,mass density,"[1]; 313.15 K, x2 = 0",751.94 ± 2 kg/m3
same,viscosity,"[1]; 313.15 K, x2 = 0",0.573 ± 0.017 mPa·s
